For orientation: solubility means how much of the substance goes into solution per volume.

Our source for the solubility values is US12357618B2, “Rapamycin (RAPA) self-microemulsifying injection and preparation method and use thereof” (priority 2022, dated 2025).

A short description of this data set: Solubility of RAPA in the drug solvent of the stock solution. The format is physicochemical. Particulars: organic solvent or mixture; drug solvent of two or more solvents (absolute ethanol and latent solvent). An excerpt: In the RAPA self-microemulsifying injection of the present disclosure, the drug solvent includes absolute ethanol and a latent solvent, and the latent solvent is one or more selected from the group consisting of propylene glycol (PG), polyethylene glycol (PEG) 300, and PEG 400. The drug solvent of the present disclosure is a mixed solvent of two or more solvents in different proportions to dissolve RAPA, which can greatly improve the solubility of RAPA.

For the molecule `CO[C@H]1C[C@@H]2CC[C@@H](C)[C@@](O)(O2)C(=O)C(=O)N2CCCC[C@H]2C(=O)O[C@H]([C@H](C)C[C@@H]2CC[C@@H](O)[C@H](OC)C2)CC(=O)[C@H](C)/C=C(\C)[C@@H](O)[C@@H](OC)C(=O)[C@H](C)C[C@H](C)/C=C/C=C/C=C/1C` [RAPA, rapamycin], the solubility is not above 60 mg/mL.
